Reference: patent publication US20220249564A1, “PDL1 POSITIVE NK CELL CANCER TREATMENT” (City of Hope, priority 2019, published 2022)

Experiments:
[1] = test system: PD-L1 expression on NK cells; experiment: PD-L1 expression on NK cells incubated with K562 cells in the presence of pathway inhibitors; type: cell-based, human; details: inhibitor 1 μM or 10 μM, FIGS. 6B, 6C
Experimental: (§1) FIGS. 6A-6J present data showing signaling pathways activating PD-L1^+ NK cells. […] “D1+” represents PD-L1^+ NK cells from donor 1, while “D1−” represents PD-L1^− NK cells from donor 1, each purified by FACS sorting. Similar definitions are applied to “D2+”, “D2−”, “D3+”, and “D3−”. Expression of Cd274 (PD-L1), Cd226, Tbx21, Eomes, Smad3 and Aka are highlighted by black arrows. […] The percentages of PD-L1+ NK cells were measured by flow cytometry. […] Data were generated from five (5) independent donors, and the experiment was repeated three times. […] Relative promoter activity was measured by luciferase assay after 48 hours. […] The experiments were repeated three times. […] The experiments were repeated three times.
To investigate mechanisms by which PD-L1 is induced in NK cells by myeloid leukemia cells, an RNA microarray was performed to profile gene expression in PD-L1^+ NK cells vs PD-L1^− NK cells, both of which were FACS-purified from bulk NK cells after being co-cultured with K562 cells. […] They were subsequently incubated with K562 myeloid leukemia cells and then PD-L1 expression on NK cells was measured. […] A PD-L1 promoter was cloned 2.1 kb upstream of the transcription start site, co-transfected with genes for specific transcription factors in 293T cells, and the activity of the PD-L1 promoter was measured by luciferase assay. […]

[2] = test system: PD-L1 expression on NK cells; experiment: PD-L1 expression of K562-pretreated NK cells after AZ (qRT-PCR, flow cytometry); type: cell-based, human; details: time dependent
Experimental: (§2) FIGS. 3A-3D present data showing that anti-PD-L1 monoclonal antibody atezolizumab (AZ) activates PD-L1 signaling in NK cells and enhances NK cell function. […] The P values were corrected for multiple comparisons by Holm's method. […] The experiment was repeated three times with three different donors. […] NK cells were sorted and the relative levels of PD-L1 mRNA expression were measured by qRT-PCR. The experiment was repeated three times. […] Two paired groups were compared by paired t-test. One-way ANOVA with repeated measures or linear mixed model was used to compare three (3) or more donor-matched groups. P values were adjusted by the Holm-Sidak method.
Cells were suspended in 100 μl PBS with 2% FBS and incubated with the indicated mAb (Table 2) at room temperature for 20 mins. After washing with 2% FBS for one time and PBS for another time, cells were fixed in 1% paraformaldehyde buffer for immediate analysis by flow cytometry using a LSRII flow cytometer (BD Biosciences). Cells used for sorting were re-suspended in RPMI 1640 containing 10% FBS. For intracellular flow cytometry, cells were permeabilized and fixed using the Foxp3/Transcription Factor Fixation/Permeabilization kit (eBioscience, Cat #00-5523-00). Data were analyzed by FlowJo software. […]

PD-L1+ NK cells = experiment: NK cell CD107α and IFN-γ expression after AZ treatment (flow cytometry); type: cell-based, human
Experimental: as §2
Peripheral blood samples from healthy donors were obtained from The American Red Cross. Human PBMCs were isolated by Percoll density gradient centrifugation. Primary human NK cells were enriched from the peripheral blood of healthy donors using an NK Cell Enrichment Kit (Miltenyi Biotec, Cat #0.130-115-818). Enriched NK cells with purity about 90% were either sorted by fluorescence-activated cell sorting (FACS) to the purity around 96% and then used or used immediately for in vitro cell culture experiments. […] All cell lines were maintained in RPMI 1640 medium supplemented with 10% FBS and 100 U/ml penicillin/streptomycin. For co-culture stimulation experiments, PBMCs, enriched NK cells, or FACS-sorted NK cells were co-incubated with various cell lines including K562, MOLM-13, AML3, RPMI 8226 or MV-4-11 at an effector/target (E/T) ratio of 10:1. […] For transwell assay experiments, 5×10^5 enriched human primary NK cells were seeded in the upper chamber of a transwell plate. The lower chamber of the transwell plate was seeded with 5×10^4 K562 myeloid leukemia cells. The transwell plate with cells was incubated at 37° C. for 20 hr.
Cells were suspended in 100 μl PBS with 2% FBS and incubated with the indicated mAb (Table 2) at room temperature for 20 mins. […] Data were analyzed by FlowJo software.

ADCC = details: Fc domain modification; cited from earlier work
[3] = test system: PD-L1 expression on expanded human primary NK cells; experiment: PD-L1 expression on expanded human primary NK cells with AZ; type: cell-based; details: expanded 7 days with K562 feeder cells, with or without 5 ng/ml IL-12 and IL-18 for 20 h; FIG. 15
Experimental: Expanded human primary NK cells for 7 days with indicated medium (R10: RPMI1640+10% FBS; MACS: MACS medium+5% human serum; SCGM: SCGM medium+5% human serum) were treated with or without 5 ng/ml IL-12 and IL-18 for 20 h in the presence of AZ or not. The expression of PD-L1 were examined by flow cytometry. P values of multiple comparison were analyzed using one-way ANOVA. Multiple comparison test was adjusted by Holm-Sidak method. ****, P<0.0001.
Expanded human primary NK cells for 7 days with indicated medium (R10: RPMI1640+10% FBS; MACS: MACS medium+5% human serum; SCGM: SCGM medium+5% human serum) were treated with or without 5 ng/ml IL-12 and IL-18 for 20 h in the presence of AZ or not. The expression of PD-L1 were examined by flow cytometry (FIG. 15). PBMC from lung cancer patients were isolated and examined for PD-L1 expression by flow cytometry (FIG. 16).

[4] = test system: p38, p-ERK, p-AKT, p-mTOR in NK cells; experiment: Downstream kinase phosphorylation in NK cells after AZ (intracellular flow cytometry, immunoblot); type: cell-based, human; details: NK cells with K562 cells, AZ treatment
Experimental: as §1
FIG. 13 presents data showing induction of p38-NF-κB signaling in primary human NK cells by the anti-PD-L1 antibody AZ. […] The histograms provided in the upper panel represent quantification of various phosphorylated kinases expressed in NK cells, followed by a graphical summary of the data (n=3) below each histogram. One-way ANOVA with repeated measures or linear mixed model was used to compare three (3) or more donor-matched groups and P values were adjusted by the Holm-Sidak method. ****, P<0.0001; NS=not significant.
(§3) Cells were suspended in 100 μl PBS with 2% FBS and incubated with the indicated mAb (Table 2) at room temperature for 20 mins. After washing with 2% FBS for one time and PBS for another time, cells were fixed in 1% paraformaldehyde buffer for immediate analysis by flow cytometry using a LSRII flow cytometer (BD Biosciences). Cells used for sorting were re-suspended in RPMI 1640 containing 10% FBS. For intracellular flow cytometry, cells were permeabilized and fixed using the Foxp3/Transcription Factor Fixation/Permeabilization kit (eBioscience, Cat #00-5523-00). Data were analyzed by FlowJo software.
Cells were pelleted and lysed in protein extraction reagent (Thermo Fisher, Cat. #78510) supplied with proteinase inhibitors. Standard procedures were used for immunoblotting. Primary antibodies used were PD-L1 (Cell Signaling Technology, Cat. #13684), GAPDH (Cell Signaling Technology, Cat. #2118), β-actin (Cell Signaling Technology, Cat. #4967), p-p38 (Cell Signaling Technology, Cat. #9211) and p-AKT (Cell Signaling Technology, Cat. #9271). Proteins were detected using goat anti-rabbit HRP-conjugated secondary antibodies (Cell Signaling Technology, Cat. #7074).

[5] = test system: PD-L1-KO K562 myeloid leukemia cells; experiment: NSG mouse model with human primary NK cells and PD-L1-KO K562 cells; type: in vivo, NSG mice
Description: After 6 days, mice were sacrificed and NK cells were isolated and assessed for PD-L1 expression by flow cytometry. […] PBS instead of IgG1 was used as placebo because AZ lacks antibody-dependent cellular cytotoxicity activity. After 6 days (three treatments), mice were sacrificed and human NK cells were examined for their expression of granzyme B, CD107α, and IFN-γ, while the number of PD-L1-knockout K562 myeloid leukemia cells (as shown in FIG. 5C) was enumerated by flow cytometry. […] Two paired groups were compared by paired t-test. One-way ANOVA with repeated measures or linear mixed model was used to compare three (3) or more donor-matched groups. P values were adjusted by the Holm-Sidak method. Kaplan-Meier method was used to estimate survival functions and log-rank test was applied to group comparisons.
8-week old NSG mice were intravenously (i.v.) injected with PD-L1 knockout K562 myeloid leukemia cells at a concentration of 2 million cells per mouse. […] Mice in the atezolizumab (AZ)-treated or control group were simultaneously i.p-injected with 200 μg AZ in 200 μL PBS or 200 μL PBS per mouse. Cytokines and AZ were injected every other day for a total of […]. The numbers of NK cells and tumor cells were examined at day 6 post injection.

[6] = test system: NK cells incubated with K562 cells; experiment: p38 inhibitors on AZ-induced PD-L1, CD107α and IFN-γ expression of NK cells; type: cell-based, human; details: presence of K562 tumor cells, 1 μM inhibitor; for AZ-induced PD-L1 expression: FIG. 6H; for AZ-induced CD107α expression of NK cells / AZ-induced IFN-γ expression of NK cells: FIG. 6J
Experimental: as §1
Two paired groups were compared by paired t-test. One-way ANOVA with repeated measures or linear mixed model was used to compare three (3) or more donor-matched groups. P values were adjusted by the Holm-Sidak method.
as §3

[7] = test system: PD-L1 expression on NK cells; experiment: Induction of PD-L1 expression on NK cells by NK cell-activating cytokines; type: cell-based, human; details: alone or in combination with other cytokines, 10 ng/mL, 24 hour; FIG. 11F
Experimental: The cytotoxicity levels of total NK cells incubated with medium alone were served as control. The cytokine-treated bulk NK cells were permeabilized and gated PD-L1+ and PD-L1^− cells to measure the MFI of IFN-γ by flow cytometry assay as shown in FIG. 11D. […] Summary graph (n=3) is shown at the bottom. […] Summary graph (n=3) is shown at the bottom. Two-sample t test was used for 2-group comparisons. One-way ANOVA was used to compare three (3) or more groups and P values were adjusted by the Holm-Sidak method. **, P<0.01; ***, P<0.001; ****, P<0.0001; NS=not significant.
Peripheral blood samples from healthy donors were obtained from The American Red Cross. Human PBMCs were isolated by Percoll density gradient centrifugation. Primary human NK cells were enriched from the peripheral blood of healthy donors using an NK Cell Enrichment Kit (Miltenyi Biotec, Cat #0.130-115-818). Enriched NK cells with purity about 90% were either sorted by fluorescence-activated cell sorting (FACS) to the purity around 96% and then used or used immediately for in vitro cell culture experiments. NK cells were cultured in RPMI 1640 supplemented with 20% FBS, 100 U/ml penicillin/streptomycin, and 10 ng/ml IL-2. […]
Cells were suspended in 100 μl PBS with 2% FBS and incubated with the indicated mAb (Table 2) at room temperature for 20 mins. […] Data were analyzed by FlowJo software. […]

[8] = NK cells stimulated with PD-L1 knock-out K562 cells 20 hours, then 20 μg/mL AZ 4 hours, FIG. 3A
[9] = vs placebo (PBS), i.p. every other day, after 6 days, FIG. 5B

Cc1ccc(S(=O)(=O)N[C@@H](Cc2ccccc2)C(=O)CCl)cc1 [TPCK]
PD-L1 expression on NK cells [1]: regulation role of p65 in PD-L1 expression was confirmed

atezolizumab [AZ]
PD-L1 expression of NK cells, mRNA level ([2]; NK cells pretreated with K562, 20 μg/mL AZ, FIG. 3C): further elevated
PD-L1 expression of NK cells, protein level ([2]; NK cells pretreated with K562, AZ, FIG. 3D): further elevated
expression of CD107a in PD-L1+ NK cells (PD-L1+ NK cells; [8]): increased
expression of IFN-γ in PD-L1+ NK cells (PD-L1+ NK cells; [8]): increased
IFN-γ production of PD-L1-transduced NK cells (PD-L1+ NK cells; lentiviral PD-L1-transduced NK cells treated with AZ, FIG. 3B): even more dramatically increased
ADCC effect (ADCC): absence
expression of PD-L1 on expanded human primary NK cells [3]: further enhanced
level of p38 ([4]; IL-2 10 ng/mL, FIG. 13, 6G): increased
level of p-ERK ([4]; FIG. 13): not increased
level of p-mTOR ([4]; FIG. 13): not increased
level of p-AKT ([4]; FIG. 13, 6G): not increased
NK cell expression of CD107α [5, 9]: significant increase
NK cell expression of IFN-γ [5, 9]: significant increase
NK cell expression of granzyme B [5, 9]: significant increase
tumor burden (number of PD-L1-KO K562 cells) ([5]; vs placebo-treated mice, upon sacrifice, FIG. 5C): significantly lower

Oc1ccc(-c2nc(-c3ccncc3)c(-c3ccc(F)cc3)[nH]2)cc1 [SB202190]
AZ-induced PD-L1 expression [6]: reduce
AZ-induced CD107α expression of NK cells [6]: inhibited
AZ-induced IFN-γ expression of NK cells [6]: inhibited

Cn1ncc(Cl)c1-c1cc(C(=O)N[C@H](CN)Cc2cccc(F)c2)sc1Cl [afuresertib]
PD-L1 expression on NK cells [1]: significantly reduced

recombinant IFN-γ: recombinant interferon gamma
PD-L1 expression on NK cells [7]: could not induce

C[S+]([O-])c1ccc(-c2nc(-c3ccncc3)c(-c3ccc(F)cc3)[nH]2)cc1 (stereo not drawn) [SB203580]
AZ-induced PD-L1 expression [6]: reduce
AZ-induced CD107α expression of NK cells [6]: inhibited
AZ-induced IFN-γ expression of NK cells [6]: inhibited
